Assay results taken from patent US20230124095A1 (AMORPHICAL LTD., priority 2020, published 2023).

How the values were obtained:
[1] = system: Experimental Autoimmune Encephalomyelitis (EAE) model; assay: Clinical score in MOG-induced EAE multiple sclerosis model in mice; assay type: in vivo
Cathepsin S = Cathepsin S activity in Lewis lung carcinoma tumors of treated mice (fluorometric kit); assay type: in vivo; settings: 12 days treatment; vs untreated (saline) group
Description: (§1) The study was performed with C57BL/6 mice at the age of 6-8 weeks. Eight mice were allocated into each study group. Light anesthesia was administered by isoflurane inhalation. LLC cells in a concentration of 2.5×10^5 cells in 100 μl PBS were intradermally injected (subcutaneously) into the right flank of each mice. […] Cisplatin was given according to manufacturer instructions.
(§2) Ten days following tumor inoculation, when the tumor reached a volume of about >60 mm^3, mice were randomly allocated into the study groups. Various treatments were administered to each group starting Day 10 onwards. The treatment duration lasted for 12 days.
(§3) Both Cathepsin B and S activities were measured using samples from the same groups according to kit instructions. […] Cathepsin B Activity Assay Kit (Fluorometric) (ab65300) and Cathepsin S Activity Assay Kit (Fluorometric) (ab65303) by Abcam (Cambridge, UK) were used.

[2] = system: Lewis Lung Carcinoma (LLC); assay: Tumor growth in subcutaneous LLC model, ACC with different stabilizers given IP or IV; assay type: in vivo, mice; settings: group 2F, per manufacturer
Cathepsin B = Cathepsin B activity in Lewis lung carcinoma tumors of treated mice (fluorometric kit); assay type: in vivo; settings: 12 days treatment; vs untreated (saline) group
Description: 8 tumors were analyzed per group. For the assay, 20 mg from each extracted tumor were weighed and lysed. Measurements were done using Cathepsin B Activity Assay Kit (Fluorometric) (ab65300) by Abcam (Cambridge, UK). The assays were performed on tumors from the two groups. The lysed samples were treated per Kit instructions, i.e., incubated with Cathepsin B substrate for 1 hour at 37° C. to identify the activity of the lysosomal protein.
as §1, §2, §3

Molecule	day on which paralysis signs started ([1]; C57BL mice, n=10 per group)	score of the paralysis signs at plateau ([1]; after days 15 and 16 of treatments)	score of the paralysis signs at the end of the study ([1]; study duration 55 days)	paralysis progression at the initial phase ([1]; until day 15, compared to mice given saline or ACC)	increase in Cathepsin S activity in tumors (Cathepsin S)	Mean tumor volume on Day 25 [2]	reduction in Cathepsin B activity in tumors (Cathepsin B)
Glatiramer acetate [Copaxone]	11 days	the same paralysis score	higher score	slower paralysis progression			
N.N.[Cl][Pt][Cl] [Cisplatin]					30%	1342 mm^3	43%
